Results published in US11370763B2, “Compounds and compositions for treating conditions associated with NLRP activity” (Novartis AG, priority 2017, dated 2022).
Read-outs that look alike come from different tables or passages of the source.

System: IL-1β production in PMA-differentiated THP-1 cells
Experiment: IL-1β production in PMA-differentiated THP-1 cells stimulated with gramicidin (hTHP-1 assay containing 2% fetal bovine serum; Procedures 1-3)
Type: cell-based, human
Details: Homo sapiens, THP-1, hTHP-1 assay containing 2% fetal bovine serum, read-out: hTHP-1 IC50 (Average IC50 of compounds in hTHP-1 assay)
Outline: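 THP-1 cells differentiated with PMA (20 ng/ml, 16-18 h), replated in 2% FBS RPMI (50,000 cells/well), preincubated 1 h with compound (top final 100 μM, 3-fold steps, 0.37% DMSO), then stimulated 2 h with gramicidin (5 μM). Supernatant IL-1β measured by HTRF.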

Row | IC50 (class symbols) | IC50 (given as numeric bound) | Structure (SMILES)
1 | 1000 to 5000 nM |  | Cc1cc(CN(C)C)ccc1S(N)(=O)=NC(=O)Cc1c(C(C)C)cc(OC(F)F)cc1C1CC1 (centres unmarked) [Example 26, 2-(2-cyclopropyl-4-(difluoromethoxy)-6-isopropylphenyl)-N-(4-((dimethylamino)methyl)-2-methylphenylsulfonimidoyl) acetamide]
2 | 1000 to 5000 nM |  | CC(C)c1cc(OC(F)F)cc(C(C)C)c1CC(=O)N=S(N)(=O)c1ccc(CN(C)C)cc1 (centres unmarked) [Example 27, 2-(4-(difluoromethoxy)-2,6-diisopropylphenyl)-N-(4-((dimethylamino)methyl)phenyl-sulfonimidoyl)acetamide]
3 | 1000 to 5000 nM |  | CC(C)c1cc(C#N)cc(C(C)C)c1CC(=O)N=S(N)(=O)c1ccc(CN(C)C)cc1 (centres unmarked) [Example 28, 2-(4-cyano-2,6-diisopropylphenyl)-N-(4-((dimethylamino)methyl)phenyl-sulfonimidoyl)acetamide]
4 | 5000 to 30000 nM |  | CC(C)c1cc(C#N)cc(C2CC2)c1CC(=O)N=S(N)(=O)c1ccc(CN(C)C)cc1 (centres unmarked) [Example 29, 2-(4-cyano-2-cyclopropyl-6-isopropylphenyl)-N-(4-((dimethylamino)methyl)phenyl-sulfonimidoyl)acetamide]
5 | 5000 to 30000 nM |  | CCc1cc(C#N)cc(C(C)C)c1CC(=O)N=S(N)(=O)c1ccc(CN(C)C)cc1 (centres unmarked) [Example 30, 2-(4-cyano-2-ethyl-6-isopropylphenyl)-N-(4-((dimethylamino)methyl)phenyl-sulfonimidoyl)acetamide]
6 | 1000 to 5000 nM |  | CC(C)c1cc(F)cc(C2CC2)c1CC(=O)N=S(N)(=O)c1ccc(CN(C)C)cc1F (centres unmarked) [Example 31, 2-(2-cyclopropyl-4-fluoro-6-isopropylphenyl)-N-(4-((dimethylamino)methyl)-2-fluorophenylsulfonimidoyl) acetamide]
7 | 5000 to 30000 nM |  | CC(C)c1cc(C#N)cc(C2CC2)c1CC(=O)N=S(N)(=O)c1ccc(CN(C)C)cc1F (centres unmarked) [Example 32, 2-(4-cyano-2-cyclopropyl-6-isopropylphenyl)-N-(4-((dimethylamino)methyl)-2-fluorophenylsulfonimidoyl) acetamide]
8 | 200 to 1000 nM |  | CC(C)c1cc(C(F)F)cc(C(C)C)c1CC(=O)N=S(N)(=O)c1ccc(C(C)(C)O)cc1F (centres unmarked) [Example 33, 2-(4-(difluoromethyl)-2,6-diisopropylphenyl)-N-(2-fluoro-4-(2-hydroxypropan-2-yl)phenylsulfonimidoyl)acetamide]
9 | 1000 to 5000 nM |  | CC(C)c1cc(C#N)cc(C(C)C)c1CC(=O)N=S(N)(=O)c1ccc(C(C)(C)O)cc1Cl (centres unmarked) [Example 34, N-(2-chloro-4-(2-hydroxypropan-2-yl)phenylsulfonimidoyl)-2-(4-cyano-2,6-diisopropylphenyl)acetamide]
10 | 200 to 1000 nM |  | CC(C)c1cc(C(F)F)cc(C(C)C)c1CC(=O)N=S(N)(=O)c1ccc(CN(C)C)cc1F (centres unmarked) [Example 35, 2-(4-(difluoromethyl)-2,6-diisopropylphenyl)-N-(4-((dimethylamino)methyl)-2-fluorophenylsulfonimidoyl) acetamide]
11 | 200 to 1000 nM |  | CCc1cc(OC(F)F)cc(C(C)C)c1CC(=O)N=S(N)(=O)c1sc(C(C)(C)O)cc1F (centres unmarked) [Example 36, 2-(4-(difluoromethoxy)-2-ethyl-6-isopropylphenyl)-N-(3-fluoro-5-(2-hydroxypropan-2-yl)thiophene-2-sulfonimidoyl)acetamide]
12 | 40 to 200 nM |  | CC(C)c1cc(C(F)F)cc(C(C)C)c1CC(=O)N=S(N)(=O)c1sc(C(C)(C)O)cc1F (centres unmarked) [Example 37, 2-(4-(difluoromethyl)-2,6-diisopropylphenyl)-N-(3-fluoro-5-(2-hydroxypropan-2-yl)thiophene-2-sulfonimidoyl)acetamide]
13 | 200 to 1000 nM |  | CC(C)c1cc(C#N)cc(C(C)C)c1CC(=O)N=S(N)(=O)c1ncc(C(C)(C)O)s1 (centres unmarked) [Example 38, 2-(4-cyano-2,6-diisopropylphenyl)-N-(5-(2-hydroxypropan-2-yl)thiazole-2-sulfonimidoyl)acetamide]
14 | 200 to 1000 nM |  | Cc1nc(C(C)(C)O)sc1S(N)(=O)=NC(=O)Cc1c(C(C)C)cc(OC(F)F)cc1C(C)C (centres unmarked) [Example 39, 2-(4-(difluoromethoxy)-2,6-diisopropylphenyl)-N-(2-(2-hydroxypropan-2-yl)-4-methylthiazole-5-sulfonimidoyl)acetamide]
15 | 200 to 1000 nM |  | Cc1nc(C(C)(C)O)sc1S(N)(=O)=NC(=O)Cc1c(C(C)C)cc(C#N)cc1C(C)C (centres unmarked) [Example 40, 2-(4-cyano-2,6-diisopropylphenyl)-N-(2-(2-hydroxypropan-2-yl)-4-methylthiazole-5-sulfonimidoyl)acetamide]
16 | 5000 to 30000 nM |  | CC(C)c1ccc(F)c(C(C)C)c1CC(=O)N=S(N)(=O)c1ccc2c(cnn2C)c1 (centres unmarked) [Example 90, N-(amino(1-methyl-1H-indazol-5-yl)(oxo)-λ^6-sulfaneylidene)-2-(3-fluoro-2,6-diisopropylphenyl)acetamide]

Row | IC50 (class symbols) | IC50 (given as numeric bound) | Structure (SMILES)
17 | 5000 to 30000 nM |  | CC(C)c1ccc(F)c(C(C)C)c1CC(=O)N=S(N)(=O)c1ccc(CN(C)C)cn1 (centres unmarked) [Example 91, N-(amino(5-((dimethylamino)methyl)pyridin-2-yl)(oxo)-λ^6-sulfaneylidene)-2-(3-fluoro-2,6-diisopropylphenyl)acetamide]
18 |  | > 30000 nM | CC(C)c1cncc(C(C)C)c1CC(=O)NS(=O)(=O)c1sc(C(C)(C)O)nc1CO [Example 92, 2-(3,5-diisopropylpyridin-4-yl)-N-((4-(hydroxymethyl)-2-(2-hydroxypropan-2-yl)thiazol-5-yl)sulfonyl)acetamide]
19 |  | > 30000 nM | CC(C)c1cc(C2(O)COC2)cc(C(C)C)c1CC(=O)N=S(N)(=O)c1ncc(C(C)(C)O)s1 (centres unmarked) [Example 93, N-(amino(5-(2-hydroxypropan-2-yl)thiazol-2-yl)(oxo)-λ^6-sulfaneylidene)-2-(4-(3-hydroxyoxetan-3-yl)-2,6-diisopropylphenyl)acetamide]
20 | 1000 to 5000 nM |  | CC(C)c1cc(C2(F)COC2)cc(C(C)C)c1CC(=O)N=S(N)(=O)c1ncc(C(C)(C)O)s1 (centres unmarked) [Example 94, N-(amino(5-(2-hydroxypropan-2-yl)thiazol-2-yl)(oxo)-λ^6-sulfaneylidene)-2-(4-(3-fluorooxetan-3-yl)-2,6-diisopropylphenyl)acetamide]
21 | 200 to 1000 nM |  | CCCc1cc(F)cc(CCC)c1CC(=O)N=S(N)(=O)c1cnc(C(C)(C)O)s1 (centres unmarked) [Example 95, N-(amino(2-(2-hydroxypropan-2-yl)thiazol-5-yl)(oxo)-λ^6-sulfaneylidene)-2-(4-fluoro-2,6-dipropylphenyl)acetamide]
22 |  | > 30000 nM | CC(C)c1cc(F)cc(C(C)C)c1C(C)C(=O)N=S(N)(=O)c1cnc(C(C)(C)O)s1 (centres unmarked) [Example 96, N-(amino(2-(2-hydroxypropan-2-yl)thiazol-5-yl)(oxo)-λ^6-sulfaneylidene)-2-(4-fluoro-2,6-diisopropylphenyl)propanamide]
23 | 200 to 1000 nM |  | CC(C)c1cc(-c2ccc3c(c2)COCC3)cc(C(C)C)c1CC(=O)N=S(N)(=O)c1cnc(C(C)(C)O)s1 (centres unmarked) [Example 97, N-(amino(2-(2-hydroxypropan-2-yl)thiazol-5-yl)(oxo)-λ^6-sulfaneylidene)-2-(4-(isochroman-7-yl)-2,6-diisopropylphenyl)acetamide]
24 | 5000 to 30000 nM |  | CC(C)(O)c1ncc(S(N)(=O)=NC(=O)Cc2c(C3CC3)cc(F)cc2C(F)(F)F)s1 (centres unmarked) [Example 98]
25 | 1000 to 5000 nM |  | CC(C)c1nc(-c2cccc(C(F)(F)F)c2)c(F)c(C(C)C)c1CC(=O)N=S(=O)(NC(=O)OC(C)(C)C)c1cnc(C(C)(C)O)s1 (centres unmarked) [Example 99, tert-butyl (N-(2-(5-fluoro-2,4-diisopropyl-6-(3-(trifluoromethyl)phenyl)pyridin-3-yl)acetyl)-2-(2-hydroxypropan-2-yl)thiazole-5-sulfonimidoyl)carbamate]
26 | 200 to 1000 nM |  | CC(C)c1nc(-c2cccc(C(F)(F)F)c2)c(F)c(C(C)C)c1CC(=O)N=S(N)(=O)c1cnc(C(C)(C)O)s1 (centres unmarked) [Example 100]
27 | 5000 to 30000 nM |  | CC(C)c1ncc(F)c(C(C)C)c1CC(=O)N=S(N)(=O)c1ccc(CN(C)C)cc1 (centres unmarked) [Example 101, N-(amino(4-((dimethylamino)methyl)phenyl)(oxo)-λ^6-sulfaneylidene)-2-(5-fluoro-2,4-diisopropylpyridin-3-yl)acetamide]
28 | 5000 to 30000 nM |  | CC(C)c1cc(F)cc(C2CCOC2)c1CC(=O)N=S(N)(=O)c1cnc(C(C)(C)O)s1 (centres unmarked) [Example 102, N-(amino(2-(2-hydroxypropan-2-yl)thiazol-5-yl)(oxo)-λ^6-sulfaneylidene)-2-(4-fluoro-2-isopropyl-6-(tetrahydrofuran-3-yl)phenyl)acetamide]
29 | 200 to 1000 nM |  | CC(C)c1ccc(F)c(C(C)C)c1CC(=O)N=S(N)(=O)c1cnc(C(C)(C)O)s1 (centres unmarked) [Example 103, N-(amino(2-(2-hydroxypropan-2-yl)thiazol-5-yl)(oxo)-λ^6-sulfaneylidene)-2-(3-fluoro-2,6-diisopropylphenyl)acetamide]
30 | 200 to 1000 nM |  | CC(C)c1c(F)c(Cl)cc(C2CC2)c1CC(=O)N=S(N)(=O)c1cnc(C(C)(C)O)s1 (centres unmarked) [Example 104, N-(amino(2-(2-hydroxypropan-2-yl)thiazol-5-yl)(oxo)-λ^6-sulfaneylidene)-2-(4-chloro-6-cyclopropyl-3-fluoro-2-isopropylphenyl)acetamide]
31 | 40 to 200 nM |  | COCc1cc(C(C)C)c(CC(=O)N=S(N)(=O)c2cc(C(C)(C)O)cs2)c(C(C)C)c1 (centres unmarked) [Example 105, N-(amino(4-(2-hydroxypropan-2-yl)thiophen-2-yl)(oxo)-λ^6-sulfaneylidene)-2-(2,6-diisopropyl-4-(methoxymethyl)phenyl) acetamide]
32 | 40 to 200 nM |  | CC(C)c1ccc(F)c(C(C)C)c1CC(=O)N=S(N)(=O)c1cc(C(C)(C)O)cs1 (centres unmarked) [Example 106, N-(amino(4-(2-hydroxypropan-2-yl)thiophen-2-yl)(oxo)-λ^6-sulfaneylidene)-2-(3-fluoro-2,6-diisopropylphenyl)acetamide]
